Several values for one entry are separate records, joined by “and”; a condition that tells them apart may be missing. Equal entries are not always repeated. Activity calls are given as the source filed them. The rule behind the calls is not given here. Numbered stars: 1 amine (or outer) side, 2 acyl side, 3 side chain; on linkers, the order of the positions; unused ones are H or OH. Bridge positions count the residues as written; N and C are the ends. Square brackets hold non-standard residues; d marks the D form. Peptide text beside a SMILES is read from it. I, II: the chains in the order shown. Actinocin(1to9) = Cc1c2oc3c(C)ccc(C(=O)[*:2])c3nc-2c(C(=O)[*:1])c(N)c1=O; NMeV = CN[C@H](C(=O)O)C(C)C; Sar = CNCC(=O)O
Test system: rodent lifetime carcinogenesis bioassay, tumor incidence TD50
Experiment: carcinogenic potency in animals, long-term in vivo studies, CPDB compilation (AID 1745844)

Nc1cc([N+](=O)[O-])ccc1O
active: TD50 (rat, strain Fischer 344, males, by gavage, site: kidney cortex, lesion: adenoma, NOS, dosed 103 weeks, study length 105 weeks) 839 mg/kg/day
2160 mg/kg/day: TD50 (mouse, strain B6C3F1, females, by gavage, site: liver, lesion: hepatocellular adenoma + hepatocellular carcinoma + neoplastic nodule, dosed 103 weeks, study length 105 weeks)
2180 mg/kg/day: TD50 (mouse, strain B6C3F1, females, by gavage, site: lung, lesion: alveolar/bronchiolar adenoma + alveolar/bronchiolar carcinoma, dosed 103 weeks, study length 105 weeks)
1300 mg/kg/day: TD50 (rat, strain Fischer 344, males, by gavage, site: liver, lesion: hepatocellular adenoma + hepatocellular carcinoma + neoplastic nodule, dosed 103 weeks, study length 105 weeks) | TD50 (rat, strain Fischer 344, males, by gavage, site: liver, lesion: hepatocellular carcinoma + neoplastic nodule, dosed 103 weeks, study length 105 weeks)
582 mg/kg/day: TD50 (mouse, strain B6C3F1, males, by gavage, site: any site (literature study), lesion: several types, types named in the paper, dosed 103 weeks, study length 105 weeks)
458 mg/kg/day: TD50 (rat, strain Fischer 344, males, by gavage, site: subcutaneous tissue, lesion: fibrosarcoma + fibroma + neurofibrosarcoma + sarcoma, NOS, dosed 103 weeks, study length 105 weeks)
584 mg/kg/day: TD50 (rat, strain Fischer 344, males, by gavage, site: subcutaneous tissue, lesion: fibroma, dosed 103 weeks, study length 105 weeks)
84.1 mg/kg/day: TD50 (rat, strain Fischer 344, males, by gavage, site: any site (literature study), lesion: several types, types named in the paper, dosed 103 weeks, study length 105 weeks)
68.2 mg/kg/day: TD50 (rat, strain Fischer 344, males, by gavage, site: testis, lesion: interstitial-cell tumor, dosed 103 weeks, study length 105 weeks)
inactive: carcinogen call (mouse, strain B6C3F1, females, by gavage, site: any site (literature study), lesion: several types, types named in the paper, dosed 103 weeks, study length 105 weeks) negative | TD50 (mouse, strain B6C3F1, males, by gavage, site: abdominal cavity + liver + mesenteric lymph node + pancreas + spleen + subcutaneous tissue, lesion: hemangioma + hemangiosarcoma, dosed 103 weeks, study length 105 weeks) 798 mg/kg/day | carcinogen call (rat, strain Fischer 344, females, by gavage, site: any site (literature study), lesion: several types, types named in the paper, dosed 103 weeks, study length 105 weeks) negative

CN(CCO)N=O
active: TD50 (rat, strain Fischer 344, males, by gavage, site: liver, lesion: hepatocellular carcinoma, dosed 69 weeks, study length 69 weeks) 1.29 mg/kg/day | TD50 (rat, strain Fischer 344, males, by gavage, site: nasal cavity, lesion: squamous-cell carcinoma, dosed 69 weeks, study length 69 weeks) 2.06 mg/kg/day
8.97 mg/kg/day: TD50 (rat, strain Fischer 344, males, by gavage, site: liver, lesion: hemangiosarcoma, dosed 69 weeks, study length 69 weeks) | TD50 (rat, strain Fischer 344, males, by gavage, site: nasal cavity, lesion: squamous-cell papilloma, dosed 69 weeks, study length 69 weeks)

ClCOCCl
0.00234 mg/kg/day: TD50 (rat, strain Sprague-Dawley Spartan, males, inhaled, site: any site (literature study), lesion: several types, types named in the paper, dosed 26 weeks, study length 121 weeks)
active: TD50 (mouse, strain Ha/ICR, females, i.p., site: abdomen, lesion: sarcoma, dosed 60 weeks, study length 60 weeks) 0.182 mg/kg/day | TD50 (mouse, strain Ha/ICR, males, inhaled, site: lung, lesion: adenoma, dosed 26 weeks, study length 108 weeks) 1.26 mg/kg/day | TD50 (mouse, strain Ha/ICR, males, inhaled, site: lung, lesion: several types, types named in the paper, dosed 26 weeks, study length 108 weeks) 1.16 mg/kg/day | TD50 (rat, strain Sprague-Dawley Spartan, males, inhaled, site: lung, lesion: adenoma, dosed 26 weeks, study length 121 weeks) 0.196 mg/kg/day | TD50 (rat, strain Sprague-Dawley Spartan, males, inhaled, site: nasal passageway, lesion: carcinoma, dosed 26 weeks, study length 121 weeks) 0.795 mg/kg/day | TD50 (rat, strain Sprague-Dawley Spartan, males, inhaled, site: nasal passageway, lesion: esthesioneuroepithelioma, dosed 26 weeks, study length 121 weeks) 0.00357 mg/kg/day
inactive: carcinogen call (mouse, strain Ha/ICR, males, inhaled, site: liver, lesion: hepatocellular carcinoma, dosed 26 weeks, study length 108 weeks) negative | carcinogen call (mouse, strain Ha/ICR, males, inhaled, site: liver, lesion: several types, types named in the paper, dosed 26 weeks, study length 108 weeks) negative | carcinogen call (rat, strain Sprague-Dawley Spartan, males, inhaled, site: liver, lesion: hepatocellular tumor, benign, dosed 26 weeks, study length 121 weeks) negative

O=c1c(O)c(-c2ccc(O)c(O)c2)oc2cc(O)cc(O)c12
active: TD50 (rat, strain Fischer 344, males, in feed, site: kidney, lesion: tubule adenoma, dosed 103 weeks, study length 103 weeks) 12500 mg/kg/day and 6030 mg/kg/day | TD50 (rat, strain Norwegian albino, females, in feed, site: ileum, lesion: several types, types named in the paper, dosed 58 weeks, study length 58 weeks) 5.12 mg/kg/day | TD50 (rat, strain Norwegian albino, females, in feed, site: urinary bladder, lesion: several types, types named in the paper, dosed 58 weeks, study length 58 weeks) 51.3 mg/kg/day | carcinogen call (rat, strain Norwegian albino, males, in feed, site: ileum, lesion: several types, types named in the paper, dosed 58 weeks, study length 58 weeks) positive | TD50 (rat, strain Norwegian albino, males, in feed, site: urinary bladder, lesion: transitional-cell carcinoma, dosed 58 weeks, study length 58 weeks) 21 mg/kg/day
15.4 mg/kg/day: TD50 (rat, strain Norwegian albino, females, in feed, site: ileum, lesion: adenocarcinoma, dosed 58 weeks, study length 58 weeks)
75700 mg/kg/day: TD50 (rat, strain Fischer 344, females, in feed, site: liver, lesion: hepatocellular adenoma + hepatocellular carcinoma + neoplastic nodule, dosed 103 weeks, study length 103 weeks)
8990 mg/kg/day and 5250 mg/kg/day: TD50 (rat, strain Fischer 344, males, in feed, site: kidney, lesion: tubule adenoma + tubular-cell adenocarcinoma, dosed 103 weeks, study length 103 weeks)
inactive: carcinogen call (hamster, strain Syrian Golden, females, in feed, site: forestomach, lesion: papilloma, dosed 50 weeks, study length 100 weeks) negative | TD50 (hamster, strain Syrian Golden, females, in feed, site: forestomach, lesion: papilloma, dosed 101 weeks, study length 101 weeks) 18900 mg/kg/day | carcinogen call (hamster, strain Syrian Golden, females, in feed, site: forestomach, lesion: papilloma, dosed 104 weeks, study length 104 weeks) negative | TD50 (hamster, strain Syrian Golden, females, in feed, site: ileum, lesion: adenocarcinoma, dosed 104 weeks, study length 104 weeks) 140000 mg/kg/day | TD50 (hamster, strain Syrian Golden, females, in feed, site: uterus, lesion: leiomyoma, dosed 101 weeks, study length 101 weeks) 39200 mg/kg/day | carcinogen call (hamster, strain Syrian Golden, males, in feed, site: adrenal gland, lesion: cortical adenoma, dosed 101 weeks, study length 101 weeks) negative | carcinogen call (hamster, strain Syrian Golden, males, in feed, site: adrenal gland, lesion: cortical adenoma, dosed 104 weeks, study length 104 weeks) negative | TD50 (hamster, strain Syrian Golden, males, in feed, site: forestomach, lesion: papilloma, dosed 50 weeks, study length 100 weeks) 1440 mg/kg/day | carcinogen call (hamster, strain Syrian Golden, males, in feed, site: forestomach, lesion: papilloma, dosed 101 weeks, study length 101 weeks) negative | TD50 (hamster, strain Syrian Golden, males, in feed, site: forestomach, lesion: papilloma, dosed 104 weeks, study length 104 weeks) 56700 mg/kg/day | carcinogen call (mouse, strain DDY, females, in feed, site: liver, lesion: one or several types, types not named, dosed 120 weeks, study length 120 weeks) negative | TD50 (mouse, strain DDY, females, in feed, site: lung, lesion: several types, types named in the paper, dosed 120 weeks, study length 120 weeks) 4240 mg/kg/day | TD50 (mouse, strain DDY, males, in feed, site: heart, lesion: spindle-cell sarcoma, dosed 115 weeks, study length 115 weeks) 73400 mg/kg/day | TD50 (mouse, strain DDY, males, in feed, site: liver, lesion: several types, types named in the paper, dosed 115 weeks, study length 115 weeks) 15100 mg/kg/day | TD50 (mouse, strain DDY, males, in feed, site: lung, lesion: several types, types named in the paper, dosed 115 weeks, study length 115 weeks) 5460 mg/kg/day | carcinogen call (rat, strain ACI, females, in feed, site: adrenal gland, lesion: cortical adenoma, dosed 77 weeks, study length 77 weeks) negative | TD50 (rat, strain ACI, females, in feed, site: adrenal gland, lesion: cortical adenoma, dosed 121 weeks, study length 121 weeks) 226000 mg/kg/day | carcinogen call (rat, strain ACI, females, in feed, site: pituitary gland, lesion: adenoma, dosed 77 weeks, study length 77 weeks) negative | TD50 (rat, strain ACI, females, in feed, site: pituitary gland, lesion: adenoma, dosed 121 weeks, study length 121 weeks) 461000 mg/kg/day | TD50 (rat, strain ACI, females, in feed, site: thigh, lesion: sarcoma, dosed 121 weeks, study length 121 weeks) 90400 mg/kg/day | TD50 (rat, strain ACI, males, in feed, site: adrenal gland, lesion: pheochromocytoma, dosed 77 weeks, study length 77 weeks) 7130 mg/kg/day | TD50 (rat, strain ACI, males, in feed, site: cecum, lesion: adenocarcinoma, dosed 121 weeks, study length 121 weeks) 35200 mg/kg/day | TD50 (rat, strain ACI, males, in feed, site: cecum, lesion: adenoma, dosed 77 weeks, study length 77 weeks) 7130 mg/kg/day | TD50 (rat, strain ACI, males, in feed, site: cecum, lesion: adenoma, dosed 121 weeks, study length 121 weeks) 72300 mg/kg/day | TD50 (rat, strain ACI, males, in feed, site: pancreas, lesion: exocrine adenoma, dosed 121 weeks, study length 121 weeks) 72300 mg/kg/day | TD50 (rat, strain ACI, males, in feed, site: testis, lesion: interstitial-cell tumor, dosed 77 weeks, study length 77 weeks) 2290 mg/kg/day | TD50 (rat, strain F344/DuCrj, females, in feed, site: all sites, lesion: lymphoma and leukemia, combined, dosed 104 weeks, study length 112 weeks) 7860 mg/kg/day | carcinogen call (rat, strain F344/DuCrj, females, in feed, site: liver, lesion: hyperplastic nodule, dosed 104 weeks, study length 112 weeks) negative | TD50 (rat, strain F344/DuCrj, females, in feed, site: uterus, lesion: endometrial stromal polyp, dosed 104 weeks, study length 112 weeks) 19300 mg/kg/day | TD50 (rat, strain F344/DuCrj, males, in feed, site: all sites, lesion: lymphoma and leukemia, combined, dosed 104 weeks, study length 112 weeks) 1160 mg/kg/day | TD50 (rat, strain F344/DuCrj, males, in feed, site: liver, lesion: hyperplastic nodule, dosed 104 weeks, study length 112 weeks) 66800 mg/kg/day | TD50 (rat, strain Fischer 344, females, in feed, site: adrenal gland, lesion: cortical adenoma, dosed 77 weeks, study length 77 weeks) 118 mg/kg/day | carcinogen call (rat, strain Fischer 344, females, in feed, site: any site (literature study), lesion: several types, types named in the paper, dosed 64 weeks, study length 64 weeks) negative | TD50 (rat, strain Fischer 344, females, in feed, site: tongue, lesion: squamous-cell carcinoma, dosed 103 weeks, study length 103 weeks) 36500 mg/kg/day | carcinogen call (rat, strain Fischer 344, males, in feed, site: any site (literature study), lesion: several types, types named in the paper, dosed 64 weeks, study length 64 weeks) negative | carcinogen call (rat, strain Fischer 344, males, in feed, site: any site (literature study), lesion: several types, types named in the paper, dosed 77 weeks, study length 77 weeks) negative

CC[C@H](C)[C@@H]1NC(=O)[C@@H](NC(=O)c2c3nc4c(C(=O)N[C@@H]5C(=O)N[C@@H](C(C)C)C(=O)N6CCC[C@H]6C(=O)N(C)CC(=O)N(C)[C@@H](C(C)C)C(=O)O[C@@H]5C)ccc(C)c4oc-3c(C)c(=O)c2N)[C@@H](C)OC(=O)[C@H](C(C)C)N(C)C(=O)CN(C)C(=O)[C@@H]2CCCN2C1=O (I: TIP[Sar][NMeV] / II: TVP[Sar][NMeV]; ester I:1-I:C, II:1-II:C; linker I:N-II:N via Actinocin(1to9))
2.23 mg/kg/day: TD50 (rat, strain BR 46, males, i.v., site: any site (literature study), lesion: benign tumor, dosed 52 weeks, study length 104 weeks)
10.8 mg/kg/day: TD50 (rat, strain BR 46, males, i.v., site: any site (literature study), lesion: malignant tumor, dosed 52 weeks, study length 104 weeks)
1.68 mg/kg/day: TD50 (rat, strain BR 46, males, i.v., site: any site (literature study), lesion: several types, types named in the paper, dosed 52 weeks, study length 104 weeks)

C#C[C@]1(OC(C)=O)CC[C@H]2[C@@H]3CCC4=C[C@@H](OC(C)=O)CC[C@@H]4[C@H]3CC[C@@]21C
inactive: carcinogen call (rat, strain Wistary/NIN, females, by gavage, site: liver, lesion: one or several types, types not named, dosed 60 weeks, study length 60 weeks) negative
